Assays:
Format in all cases: cell-based
TRPC7 homomer = target: T1, TRPC7 homomer (Homo sapiens, UniProt Q9HCX4); assay: Whole-cell patch-clamp, inhibition of TRPC7 homomer
T1 construct: expressed in transfected cells
T1 sequence (Q9HCX4 1-862): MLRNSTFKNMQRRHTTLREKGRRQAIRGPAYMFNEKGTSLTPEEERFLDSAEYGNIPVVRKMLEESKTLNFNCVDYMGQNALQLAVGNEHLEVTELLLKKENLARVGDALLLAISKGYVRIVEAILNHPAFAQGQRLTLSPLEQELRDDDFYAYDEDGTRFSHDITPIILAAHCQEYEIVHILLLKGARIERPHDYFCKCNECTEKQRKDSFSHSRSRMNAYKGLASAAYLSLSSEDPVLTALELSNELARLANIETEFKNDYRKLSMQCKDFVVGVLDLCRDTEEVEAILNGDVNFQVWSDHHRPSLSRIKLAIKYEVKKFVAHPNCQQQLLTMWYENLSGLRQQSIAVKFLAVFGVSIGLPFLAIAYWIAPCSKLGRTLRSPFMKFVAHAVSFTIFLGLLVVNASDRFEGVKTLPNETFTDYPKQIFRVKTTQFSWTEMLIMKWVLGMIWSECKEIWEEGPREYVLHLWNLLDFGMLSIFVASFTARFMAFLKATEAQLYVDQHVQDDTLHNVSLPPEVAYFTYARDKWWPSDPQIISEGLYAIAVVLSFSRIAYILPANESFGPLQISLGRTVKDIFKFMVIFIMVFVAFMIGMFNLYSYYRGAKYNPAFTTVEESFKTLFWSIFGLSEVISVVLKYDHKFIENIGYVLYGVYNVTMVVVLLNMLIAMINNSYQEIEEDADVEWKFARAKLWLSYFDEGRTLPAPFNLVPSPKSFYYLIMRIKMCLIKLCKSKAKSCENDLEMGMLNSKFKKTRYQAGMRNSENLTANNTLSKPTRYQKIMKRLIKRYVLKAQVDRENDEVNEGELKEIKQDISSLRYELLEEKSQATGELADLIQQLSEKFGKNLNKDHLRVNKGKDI
Description: Error bars represent the standard error of the mean (SEM, n = 5 independent cells).

[1] = system: TRPC1 or TRPC5 mutations within the TRPC1/5 heteromer; assay: Whole-cell patch-clamp, inhibition of TRPC1/5 heteromers carrying TRPC1 or TRPC5 mutations (e.g. TRPC1 F595A); details: TRPC1 F595A/C5 vs WT TRPC1/5
Description: The full-length hTRPC5 or truncated mTRPC5, and the full-length hTRPC1 constructs was respectively co-transfected in a plasmid ration 1:3 (w/w) into HEK293T cells (from the ATCC). As previously described, a mCherry was inserted into TRPC5 constructs and a GFP was inserted at the C terminus of TRPC1. Therefore, Cells with red and green fluorescence were selected for whole-cell patch recordings (HEKA EPC10 amplifier, […] software (https://www.heka.com/downloads/downloads_main.html#down_patchmaster)). A 1-s ramp protocol from −100 to +100 mV was applied at a frequency of 0.2 Hz. Signals were sampled at 50 kHz and filtered at 2.9 kHz. The pipette solution contained 130 mM CsCl, 1 mM MgCl2, 5.7 mM CaCl2, 10 mM EGTA, and 10 mM Hepes (calculated free Ca^2+, 200 nM), and the pH was titrated to 7.2 using CsOH[40]. The standard bath solution contained 140 mM NaCl, 5 mM KCl, 1 mM MgCl2, 2 mM CaCl2, 10 mM Hepes, and 10 mM D-glucose, and the pH was adjusted to 7.4 with NaOH (1 M). The recording chamber (150 μL) was perfused at a rate of ~2 mL/min. All recordings were performed at room temperature. In this experiment, TRPC5 homomers or TRPC1/5 heteromers were activated using the TRPC1/4/5 agonist Englerin A (EA).
(§1) Error bars represent the standard error of the mean (SEM, n = 6 independent
(§2) Error bars represent the standard error of the
(§3) 110 mean (SEM, n = 5 independent cells).

TRPC3 homomer = target: T2, TRPC3 homomer (Homo sapiens, UniProt Q13507); assay: Whole-cell patch-clamp, inhibition of TRPC3 homomer
T2 construct: expressed in transfected cells
T2 sequence (Q13507 1-921): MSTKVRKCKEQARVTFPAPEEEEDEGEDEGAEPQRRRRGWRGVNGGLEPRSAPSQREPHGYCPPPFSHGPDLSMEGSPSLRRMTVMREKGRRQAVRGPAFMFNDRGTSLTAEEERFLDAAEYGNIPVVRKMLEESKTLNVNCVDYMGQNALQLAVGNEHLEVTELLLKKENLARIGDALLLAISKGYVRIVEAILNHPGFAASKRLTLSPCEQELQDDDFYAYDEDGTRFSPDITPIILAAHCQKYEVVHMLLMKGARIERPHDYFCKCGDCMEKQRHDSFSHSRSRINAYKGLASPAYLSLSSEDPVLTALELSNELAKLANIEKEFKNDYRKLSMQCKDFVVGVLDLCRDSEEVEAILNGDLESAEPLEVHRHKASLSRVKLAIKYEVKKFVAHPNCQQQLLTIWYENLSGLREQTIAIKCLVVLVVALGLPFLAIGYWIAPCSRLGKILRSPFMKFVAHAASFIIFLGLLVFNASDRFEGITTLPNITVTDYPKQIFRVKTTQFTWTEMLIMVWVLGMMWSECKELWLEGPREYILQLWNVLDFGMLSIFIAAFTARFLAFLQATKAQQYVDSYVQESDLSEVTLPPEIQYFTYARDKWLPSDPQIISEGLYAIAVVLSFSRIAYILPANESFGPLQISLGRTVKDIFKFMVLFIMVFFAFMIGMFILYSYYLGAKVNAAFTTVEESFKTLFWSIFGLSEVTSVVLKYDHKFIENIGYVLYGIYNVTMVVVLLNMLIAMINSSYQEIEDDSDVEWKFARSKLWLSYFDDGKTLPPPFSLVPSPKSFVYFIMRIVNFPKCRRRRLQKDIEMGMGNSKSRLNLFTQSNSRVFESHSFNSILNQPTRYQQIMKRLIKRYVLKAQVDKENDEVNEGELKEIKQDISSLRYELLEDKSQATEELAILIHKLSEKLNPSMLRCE
Description: as §1, §2, §3

## CN(C)CCCCn1c(=O)c2c(nc(Oc3cccc(Cl)c3)n2Cc2ccc(Cl)cc2)n(C)c1=O [H08]
TRPC7 homomer
  IC50: > 10 µM
TRPC7 homomer; 10 μM
  inhibition of TRPC7: no more than 40%
[1]
  increase in IC50 on alanine substitution of F595 in TRPC1: ~ 100 fold
TRPC3 homomer
  IC50: > 10 µM
TRPC3 homomer; 10 μM
  inhibition of TRPC3: no more than 40%
